# Test results from patent US8329904B2, “Azacyclic derivatives” (Hoffmann-La Roche Inc., priority 2009, dated 2012).
# Target: T1, human HSL (Homo sapiens, UniProt Q05469)
# T1 construct: overlapping PCR to generate a full length human HSL ORF with a 3′-His6 tag; His6 (C); made in house; host or cells: High 5 insect cells (baculovirus, pFast-BAC)
# T1 sequence (Q05469 1-1076): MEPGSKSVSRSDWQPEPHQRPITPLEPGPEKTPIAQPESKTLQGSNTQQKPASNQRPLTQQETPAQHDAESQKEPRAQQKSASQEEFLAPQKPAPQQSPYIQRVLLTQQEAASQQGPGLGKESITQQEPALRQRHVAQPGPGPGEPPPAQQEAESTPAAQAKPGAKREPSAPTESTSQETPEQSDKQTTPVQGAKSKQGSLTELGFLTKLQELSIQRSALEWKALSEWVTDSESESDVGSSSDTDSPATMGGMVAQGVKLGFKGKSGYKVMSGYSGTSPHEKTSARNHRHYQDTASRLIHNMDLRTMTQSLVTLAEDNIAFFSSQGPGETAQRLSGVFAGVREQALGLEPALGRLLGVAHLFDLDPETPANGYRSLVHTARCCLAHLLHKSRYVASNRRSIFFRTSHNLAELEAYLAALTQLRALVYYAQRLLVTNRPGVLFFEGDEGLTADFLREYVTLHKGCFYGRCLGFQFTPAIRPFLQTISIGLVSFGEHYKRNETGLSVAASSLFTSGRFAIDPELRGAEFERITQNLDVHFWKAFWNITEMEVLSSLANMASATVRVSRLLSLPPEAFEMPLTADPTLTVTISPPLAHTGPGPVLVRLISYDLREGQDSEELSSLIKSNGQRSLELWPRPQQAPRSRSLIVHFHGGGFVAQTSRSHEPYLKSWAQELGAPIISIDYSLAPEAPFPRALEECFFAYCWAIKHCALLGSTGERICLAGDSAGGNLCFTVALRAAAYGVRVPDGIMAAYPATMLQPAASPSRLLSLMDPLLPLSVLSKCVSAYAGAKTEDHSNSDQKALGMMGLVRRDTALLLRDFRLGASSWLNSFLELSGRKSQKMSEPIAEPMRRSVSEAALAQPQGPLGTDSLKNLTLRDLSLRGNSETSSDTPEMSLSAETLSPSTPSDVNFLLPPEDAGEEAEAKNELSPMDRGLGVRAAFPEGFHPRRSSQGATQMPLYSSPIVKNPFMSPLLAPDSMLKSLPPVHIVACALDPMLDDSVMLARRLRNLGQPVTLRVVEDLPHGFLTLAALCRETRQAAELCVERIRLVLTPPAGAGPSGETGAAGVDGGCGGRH
# Assay: Human Hormone-Sensitive Lipase (HSL) Enzyme Inhibition Assay
# Format: biochemical
# Conditions: colorimetric assay, 2,3-dimercapto-1-propanol tributyrate (DMPT) substrate, 37° C. for 20 minutes, absorbance at 405 nm; read-out: HSL hum IC50
# Summary of the method: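 Colorimetric thioester hydrolysis: compounds in DMSO series mixed with DMPT (1.5 mM) in MOPS pH 7.2 with BSA, then baculovirus-expressed His6-tagged full-length human HSL added, 37° C, 20 min. DTNB plus detergents added, 15 min room temperature, absorbance at 405 nm.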
row,Compound,IC50
1,"O=C(N1CCC2(CC1)CCN(c1ccc(OC(F)(F)F)cc1)C2=O)N1CCCc2ccccc21 [Example 281, 8-(3,4-Dihydro-2H-quinoline-1-carbonyl)-2-(4-trifluoromethoxy-phenyl)-2,8-diaza-spiro[4.5]decan-1-one]",110 nM
2,"CN(CCc1ccccc1)C(=O)N1CCC2(CC1)CCN(c1ccc(OC(F)(F)F)cc1)C2=O [Example 282, 1-Oxo-2-(4-trifluoromethoxy-phenyl)-2,8-diaza-spiro[4.5]decane-8-carboxylic acid methyl-phenethyl-amide]",130 nM
3,"CN(CCc1ccccn1)C(=O)N1CCC2(CC1)CCN(c1ccc(OC(F)(F)F)cc1)C2=O [Example 283, 1-Oxo-2-(4-trifluoromethoxy-phenyl)-2,8-diaza-spiro[4.5]decane-8-carboxylic acid methyl-(2-pyridin-2-yl-ethyl)-amide]",140 nM
4,"CCN(CCc1ccccn1)C(=O)N1CCC2(CC1)CCN(c1ccc(OC(F)(F)F)cc1)C2=O [Example 284, 1-Oxo-2-(4-trifluoromethoxy-phenyl)-2,8-diaza-spiro[4.5]decane-8-carboxylic acid ethyl-(2-pyridin-2-yl-ethyl)-amide]",150 nM
5,"CC(C)NS(=O)(=O)N1CCC2(CCN(c3ccc(OC(F)(F)F)cc3)C2=O)CC1 [Example 285, 1-Oxo-2-(4-trifluoromethoxy-phenyl)-2,8-diaza-spiro[4.5]decane-8-sulfonic acid isopropylamide]",70 nM
6,"O=C1N(c2ccc(OC(F)(F)F)cc2)CCC12CCN(S(=O)(=O)Nc1ccccc1)CC2 [Example 286, 1-Oxo-2-(4-trifluoromethoxy-phenyl)-2,8-diaza-spiro[4.5]decane-8-sulfonic acid phenylamide]",60 nM
7,"O=C1N(c2ccc(OC(F)(F)F)cc2)CCC12CCN(S(=O)(=O)NCc1ccccc1)CC2 [Example 287, 1-Oxo-2-(4-trifluoromethoxy-phenyl)-2,8-diaza-spiro[4.5]decane-8-sulfonic acid benzylamide]",50 nM
8,"CC(CNS(=O)(=O)N1CCC2(CCN(c3ccc(OC(F)(F)F)cc3)C2=O)CC1)c1ccccc1 (stereo not shown) [Example 288, 1-Oxo-2-(4-trifluoromethoxy-phenyl)-2,8-diaza-spiro[4.5]decane-8-sulfonic acid (2-phenyl-propyl)-amide]",150 nM
9,"COCCNS(=O)(=O)N1CCC2(CCN(c3ccc(OC(F)(F)F)cc3)C2=O)CC1 [Example 289, 1-Oxo-2-(4-trifluoromethoxy-phenyl)-2,8-diaza-spiro[4.5]decane-8-sulfonic acid (2-methoxy-ethyl)-amide]",230 nM
10,"CCNS(=O)(=O)N1CCC2(CCN(c3ccc(OC(F)(F)F)cc3)C2=O)CC1 [Example 290, 1-Oxo-2-(4-trifluoromethoxy-phenyl)-2,8-diaza-spiro[4.5]decane-8-sulfonic acid ethylamide]",160 nM
11,"CCN(CC)S(=O)(=O)N1CCC2(CCN(c3ccc(OC(F)(F)F)cc3)C2=O)CC1 [Example 291, 1-Oxo-2-(4-trifluoromethoxy-phenyl)-2,8-diaza-spiro[4.5]decane-8-sulfonic acid diethylamide]",90 nM
12,"CN(CCO)S(=O)(=O)N1CCC2(CCN(c3ccc(OC(F)(F)F)cc3)C2=O)CC1 [Example 292, 1-Oxo-2-(4-trifluoromethoxy-phenyl)-2,8-diaza-spiro[4.5]decane-8-sulfonic acid (2-hydroxy-ethyl)-methyl-amide]",200 nM
13,"CC(C)CN(C)S(=O)(=O)N1CCC2(CCN(c3ccc(OC(F)(F)F)cc3)C2=O)CC1 [Example 293, 1-Oxo-2-(4-trifluoromethoxy-phenyl)-2,8-diaza-spiro[4.5]decane-8-sulfonic acid isobutyl-methyl-amide]",80 nM
14,"CCN(CCOC)S(=O)(=O)N1CCC2(CCN(c3ccc(OC(F)(F)F)cc3)C2=O)CC1 [Example 294, 1-Oxo-2-(4-trifluoromethoxy-phenyl)-2,8-diaza-spiro[4.5]decane-8-sulfonic acid ethyl-(2-methoxy-ethyl)-amide]",90 nM
15,"CN(c1ccccc1)S(=O)(=O)N1CCC2(CCN(c3ccc(OC(F)(F)F)cc3)C2=O)CC1 [Example 295, 1-Oxo-2-(4-trifluoromethoxy-phenyl)-2,8-diaza-spiro[4.5]decane-8-sulfonic acid methyl-phenyl-amide]",70 nM
16,"CN(Cc1ccccc1)S(=O)(=O)N1CCC2(CCN(c3ccc(OC(F)(F)F)cc3)C2=O)CC1 [Example 296, 1-Oxo-2-(4-trifluoromethoxy-phenyl)-2,8-diaza-spiro[4.5]decane-8-sulfonic acid benzyl-methyl-amide]",70 nM
17,"CN(CCc1ccccc1)S(=O)(=O)N1CCC2(CCN(c3ccc(OC(F)(F)F)cc3)C2=O)CC1 [Example 297, 1-Oxo-2-(4-trifluoromethoxy-phenyl)-2,8-diaza-spiro[4.5]decane-8-sulfonic acid methyl-phenethyl-amide]",110 nM
18,"CN(CCc1ccccn1)S(=O)(=O)N1CCC2(CCN(c3ccc(OC(F)(F)F)cc3)C2=O)CC1 [Example 298, 1-Oxo-2-(4-trifluoromethoxy-phenyl)-2,8-diaza-spiro[4.5]decane-8-sulfonic acid methyl-(2-pyridin-2-yl-ethyl)-amide]",160 nM
19,"CN(C(=O)N1CCC2(CC1)CCN(c1ccc(OC(F)(F)F)cc1)C2=O)c1ccc(C(F)(F)F)cc1 [Example 299, 1-Oxo-2-(4-trifluoromethoxy-phenyl)-2,8-diaza-spiro[4.5]decane-8-carboxylic acid methyl-(4-trifluoromethyl-phenyl)-amide]",170 nM
20,"CN(C(=O)N1CCC2(CC1)CCN(c1ccc(OC(F)(F)F)cc1)C2=O)c1ccc(Cl)cc1 [Example 300, 1-Oxo-2-(4-trifluoromethoxy-phenyl)-2,8-diaza-spiro[4.5]decane-8-carboxylic acid (4-chloro-phenyl)-methyl-amide]",60 nM
21,"CN(C(=O)N1CCC2(CC1)CCN(c1ccc(OC(F)(F)F)cc1)C2=O)c1ccc(Cl)c(Cl)c1 [Example 301, 1-Oxo-2-(4-trifluoromethoxy-phenyl)-2,8-diaza-spiro[4.5]decane-8-carboxylic acid (3,4-dichloro-phenyl)-methyl-amide]",110 nM
22,"CN(C(=O)N1CCC2(CC1)CCN(c1ccc(OC(F)(F)F)cc1)C2=O)c1cccc(Cl)c1 [Example 302, 1-Oxo-2-(4-trifluoromethoxy-phenyl)-2,8-diaza-spiro[4.5]decane-8-carboxylic acid (3-chloro-phenyl)-methyl-amide]",40 nM
23,"CCCCN(CC)C(=O)N1CCC2(CC1)CCN(c1ccc(OC(F)(F)F)cc1)C2=O [Example 303, 1-Oxo-2-(4-trifluoromethoxy-phenyl)-2,8-diaza-spiro[4.5]decane-8-carboxylic acid butyl-ethyl-amide]",140 nM
24,"CCN(C(=O)N1CCC2(CC1)CCN(c1ccc(OC(F)(F)F)cc1)C2=O)C(C)C [Example 304, 1-Oxo-2-(4-trifluoromethoxy-phenyl)-2,8-diaza-spiro[4.5]decane-8-carboxylic acid ethyl-isopropyl-amide]",80 nM
25,"CCN(C(=O)N1CCC2(CC1)CCN(c1ccc(OC(F)(F)F)cc1)C2=O)C1CCCCC1 [Example 305, 1-Oxo-2-(4-trifluoromethoxy-phenyl)-2,8-diaza-spiro[4.5]decane-8-carboxylic acid cyclohexyl-ethyl-amide]",140 nM
26,"CCN(Cc1ccccc1F)C(=O)N1CCC2(CC1)CCN(c1ccc(OC(F)(F)F)cc1)C2=O [Example 306, 1-Oxo-2-(4-trifluoromethoxy-phenyl)-2,8-diaza-spiro[4.5]decane-8-carboxylic acid ethyl-(2-fluoro-benzyl)-amide]",160 nM
27,"CCN(Cc1ccncc1)C(=O)N1CCC2(CC1)CCN(c1ccc(OC(F)(F)F)cc1)C2=O [Example 307, 1-Oxo-2-(4-trifluoromethoxy-phenyl)-2,8-diaza-spiro[4.5]decane-8-carboxylic acid ethyl-pyridin-4-ylmethyl-amide]",350 nM
28,"CCN(C(=O)N1CCC2(CC1)CCN(c1ccc(OC(F)(F)F)cc1)C2=O)c1cccc(C)c1 [Example 308, 1-Oxo-2-(4-trifluoromethoxy-phenyl)-2,8-diaza-spiro[4.5]decane-8-carboxylic acid ethyl-m-tolyl-amide]",50 nM
